Source: paper PMC13242511, “Disrupting Notch signalling by a small molecule inhibiting dihydroorotate dehydrogenase activity” (Scientific Reports, 2026)
Values joined by “and” are separate entries in the source; they are usually repeats but may differ in a detail not shown here. Identical values can stand only once.

Key:
Format in all cases: cell-based
BT-20 cells = test: Growth inhibition, metabolic activity (CellTiter-Glo); conditions: Homo sapiens; BT-20, six days; read-out: approximated IC50, metabolic activity
Source text: (§1) We next investigated whether compounds A-E affected growth and viability of cell lines from T-cell acute lymphoblastic leukaemia (T-ALL) and breast cancer, two tumour types in which elevated Notch signalling has been implicated in tumorigenesis. […] When testing analogues of compounds B and C, five of the seven B analogues and one of the two C analogues produced dose–response curves and IC50s, which however were higher compared to the original hits (Supplemental Fig. 5A; IC50s are presented in Supplemental Table 6).
(§2) Compounds were spotted on white 384-well tissue culture plates (Greiner, cat #781080) using an Echo 525 Acoustic liquid handler (Labcyte). Cells were grown to 80% confluence, detached if required, counted and 20 µl containing 2000–4000 cells per well was then seeded in each well and cultivated for three (4,000 cells seeded) and six days (2,000 cells seeded). […] Luciferase activity (reading out metabolic activity) was determined using the CellTiter-Glo 2.0 kit (CTG, Promega, cat #G9242) following the manufacturer’s instructions and luminescence was measured on a SpectraMaxi3 or Varioscan plate reader (Molecular Devices, Thermofisher).

MDA-MB-436 cells = test: as above; conditions: Homo sapiens; MDA-MB-436, six days; read-out: approximated IC50, metabolic activity
Source text: as §1, §2

HES-1 in JURKAT cells = test: Western blot analysis of HES1 protein; conditions: 2 µM, 48 h, Fig. 8C
Experimental: (§3) Cells were washed in ice-cold PBS and incubated for 30 min on ice with RIPA cell lysis buffer (Thermofisher, cat #89900) containing protease and phosphatase inhibitors (Thermofisher, cat #78442), scraped off and homogenized using a 25G syringe, and subsequently centrifugated for 10 min at > 13,000xg. […] After electrophoresis, gels were placed directly onto a TransBlot Turbo PVDF or nitrocellulose membrane (Bio-rad, cat #1704157 and cat #1704159) and transferred using the “HIGH MW” protocol (Bio-Rad). Subsequently, membranes were blocked for 1 h at room temperature using Clear Milk Blocking Buffer (ThermoFisher, cat #37587) supplemented with 0.1% Tween20 (Sigma-Aldrich, cat #P1379). Detection of antibody binding was performed by using Clarity Western ECL-Substrate (Bio-rad, cat #1705060S). Beta-Actin protein signals were used as a loading control. Western blot membranes were in some experiments stripped after development (indicated in the figure in each respective case) by washing the membranes twice for 10 min in PBS, followed by incubation in membranes in western blot stripping buffer (ThermoFisher, cat #21059) for 30 min at room temperature and gentle agitation. […] Protein expression levels of western blot bands were quantified using Fiji (V.2.16) with beta-Actin signals for normalisation (Supplemental Table 8). […]

HES1 in MDA-MB-231 cells = test: Western blot analysis of HES1 protein; conditions: MDA-MB-231, 2 µM, 48 h; Fig. 8C
Experimental: as §3

NOTCH1 = test: Cell surface biotinylation experiment; conditions: MDA-MB-231, 2 µM, 24 h; Fig. 8B
Experimental: For labelling of membrane proteins, MDA-MB-231 cells were grown to 80% confluency in 6-well cell culture dishes (ThermoFisher, cat #104675) and treated with 2 µM of the indicated compounds for 24 h. Plates were then put on ice for 10 min to slow down cellular metabolism and halt internalisation of membrane proteins. Next, 0.5 mg/ml Sulfo-NHS-Biotin (ThermoFisher, cat #21217) in PBS was added to every second well for 40 min and non-treated wells served as controls. Excess of biotin was removed by washing the plates with PBS followed by incubation with 100 mM glycin (Sigma-Aldrich, cat #G8898) in PBS on ice. Wells were washed twice with ice-cold PBS and next, 500 µl lysis buffer was added to each well (50 mM Tris–HCl pH 7.4, 150 mM NaCl, 1% Triton X-100, (Sigma-Aldrich, cat #X100), 2 mM EDTA, including protease and phosphatase inhibitors, Thermofisher, cat #78442). […] NOTCH1 TMICD western blot band intensity was quantified using Fiji (ImageJ) after background subtraction. Relative enrichment of NOTCH1 protein present at the cell surface was calculated with IP/Input ratio (IP NOTCH1/Input NOTCH1). Input and corresponding IP fraction of a treatment were separated on the same gel and bands were measured while non-saturated. Two independent biological replicates were assessed.

MDA-MB-231 cells = test: Immunocytochemistry of NOTCH1, nuclei and giant cell count; set-up: Average Size nuclei / AVG Average Size nuclei: unit not given here; conditions: for fraction of cells with large nuclei / overall level of NOTCH1 (ICC) / AVG Giant cells/ total nucl (%) / AVG Average Size nuclei / Average Size nuclei / Count (nuclei per field) / Giant cells /field / Giant cells/ total nucl (%): MDA-MB-231, 2 µM; for fraction of cells with large nuclei / overall level of NOTCH1 (ICC): 24 h; for fraction of cells with large nuclei: compared to DMSO, Fig. 8D; for overall level of NOTCH1 (ICC): Fig. 8A; for Average Size nuclei / Count (nuclei per field) / Giant cells /field / Giant cells/ total nucl (%): single images; for cell morphology: overview in comparison to compound C, Supplemental Fig. 9
Experimental: 20,000 MDA-MB-231 cells were seeded on cover-slides (BD Bioscience), allowed to attach and treated with 2 µM compound for 24 h and 72 h upon reaching 80% confluence. For quantification of NOTCH1 signals and to monitor morphological changes immunocytochemistry staining to localize NOTCH1 was carried out as described above for C2C12 cells. Cellular morphology was visualized with Phalloidin (Thermofisher, cat # A22287), used at 1:2000 dilution and a NOTCH1 antibody used at 1:100 dilution (Cell signalling, cat #D6F11). Images were recorded using a Zeiss LSM 700 laser scanning microscope with a 40 × objective. Identical channel configuration and detector gain settings were used for quantification of fluorescence signals and a minimum of four images were recorded per condition. Secondary antibody control background signals were averaged and subtracted from each image and the same brightness and contrast adjustments were applied to all images before conducting histogram-based quantification of NOTCH1 signals. A 10 × objective was used for assessing morphological changes and a minimum of four and three images at 24 h and 72 h, respectively were recorded for quantification of nuclei count, size and number of giant cells. Images were processed using Fiji (ImageJ) software and objects were separated from background using Otsu thresholding until all nuclei were detectable. Nuclei objects were filled and nuclei particles were measured using size exclusion and circularity filter settings, 10-infinity (size) and 0,1–0,5 (circularity). Overlay images of nuclear stain and Phalloidin were used to manually count and annotate giant cells using Fiji’s cell counter.

Structure (SMILES): Cc1ccc2[nH]c3c(c2c1)CCOC31CCN(Cc2ccccc2-c2ccccc2)CC1 [compound B]
- IC50 (BT-20 cells): 3.2 µM
- IC50 (MDA-MB-436 cells): 2 µM

Structure (SMILES): COc1cccc(CNc2ccc(N3CCCCC3)cc2)c1OCc1cccs1 [compound C]
- level of HES-1 protein (HES-1 in JURKAT cells): reduced
- HES1 protein levels (HES1 in MDA-MB-231 cells): reduction in HES1 levels
- NOTCH1 surface presentation (NOTCH1): not hindered
- fraction of cells with large nuclei (MDA-MB-231 cells): increased fraction
- overall level of NOTCH1 (ICC) (MDA-MB-231 cells): not affected
- AVG Giant cells/ total nucl (%) (MDA-MB-231 cells; 24h treatment, DMSO 1.4): 2.4%
- AVG Average Size nuclei (MDA-MB-231 cells; 24h treatment, DMSO 184.3): 211.1
- Average Size nuclei (MDA-MB-231 cells; 24h treatment): 215.8 and 220.5 and 221.4 and 186.7
- Count (nuclei per field) (MDA-MB-231 cells; 24h treatment): 1118.0 and 1274.0 and 861.0 and 1213.0
- Giant cells /field (MDA-MB-231 cells; 24h treatment): 26.0 and 28.0 and 22.0 and 30.0
- Giant cells/ total nucl (%) (MDA-MB-231 cells; 24h treatment): 2.3% and 2.2% and 2.6% and 2.5%
- AVG Giant cells/ total nucl (%) (MDA-MB-231 cells; 72h treatment, DMSO 0.7): 3.8%
- AVG Average Size nuclei (MDA-MB-231 cells; 72h treatment, DMSO 184.1): 267.6
- Average Size nuclei (MDA-MB-231 cells; 72h treatment): 254.0 and 270.2 and 244.9 and 301.2
- Count (nuclei per field) (MDA-MB-231 cells; 72h treatment): 251.0 and 246.0 and 215.0 and 208.0
- Giant cells /field (MDA-MB-231 cells; 72h treatment): 9.0 and 8.0 and 10.0
- Giant cells/ total nucl (%) (MDA-MB-231 cells; 72h treatment): 3.6% and 3.3% and 3.7% and 4.8%
- cell morphology (MDA-MB-231 cells): strongest effect

Structure (SMILES): CC(C)(C(=O)NCC(F)(F)C(F)(F)F)C(=O)N[C@@H]1C(=O)Nc2ccccc2-c2ccccc21 [RO4929097, reference compound]
- fraction of cells with large nuclei (MDA-MB-231 cells): smaller increase
- overall level of NOTCH1 (ICC) (MDA-MB-231 cells): trend towards reduced levels
- AVG Giant cells/ total nucl (%) (MDA-MB-231 cells; 24h treatment, DMSO 1.4): 1.7%
- AVG Average Size nuclei (MDA-MB-231 cells; 24h treatment, DMSO 184.3): 170.6
- Average Size nuclei (MDA-MB-231 cells; 24h treatment, listed as GSI): 168.5 and 151.9 and 180.3 and 181.9
- Count (nuclei per field) (MDA-MB-231 cells; 24h treatment, listed as GSI): 1431.0 and 1167.0 and 1371.0 and 1390.0
- Giant cells /field (MDA-MB-231 cells; 24h treatment, listed as GSI): 23.0 and 26.0 and 17.0 and 24.0
- Giant cells/ total nucl (%) (MDA-MB-231 cells; 24h treatment, listed as GSI): 1.6% and 2.2% and 1.2% and 1.7%
- AVG Giant cells/ total nucl (%) (MDA-MB-231 cells; 72h treatment, DMSO 0.7): 1.2%
- AVG Average Size nuclei (MDA-MB-231 cells; 72h treatment, DMSO 184.1): 205.4
- Average Size nuclei (MDA-MB-231 cells; 72h treatment, listed as GSI): 177.5 and 237.7 and 201.1
- Count (nuclei per field) (MDA-MB-231 cells; 72h treatment, listed as GSI): 508.0 and 335.0 and 447.0
- Giant cells /field (MDA-MB-231 cells; 72h treatment, listed as GSI): 4.0 and 6.0 and 5.0
- Giant cells/ total nucl (%) (MDA-MB-231 cells; 72h treatment, listed as GSI): 0.8% and 1.8% and 1.1%
- cell morphology (MDA-MB-231 cells): moderate effect
